Assay results from patent US9193731B2, “Antimicrobial compounds and methods of making and using the same” (Melinta Therapeutics, Inc., priority 2009, dated 2015).

Test system: Escherichia coli strain ATCC25922
Assay: standard microdilution assay to determine minimum inhibitory concentrations (MICs)
Format: cell-based
Details: for E. coli ATCC25922 MIC: Escherichia coli strain ATCC25922, microdilution; for MIC: Escherichia coli, ATCC25922, Escherichia coli strain ATCC25922, microdilution, read-out: E. coli ATCC25922 MIC
Outline: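 E. coli strain ATCC25922 tested per CLSI microdilution methodology (about 100 microliters per well) to find minimum inhibitory concentrations. Activity scored categorically at a 16 micrograms/ml threshold.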

| SMILES | E. coli ATCC25922 MIC | MIC [mg/L] |
| --- | --- | --- |
| NCCCNCc1ccc(-n2cc3cc(-c4cc(C(=O)N5CCC(C(N)=O)CC5)cc(N5CCNCC5)c4)[nH]c3nc2=O)cc1 [Compound 910] | − (a “−” indicates that the compound has an MIC value greater than 16 micrograms/ml) | – |
| CC1CN(C(=O)c2ccc(-c3cn4cc(-c5ccc(CNCCCN)cc5)c(=O)nc4[nH]3)cc2)CC(C)N1 (centres unmarked) [Compound 819] | + (a “+” indicates that the compound has an MIC value of 16 micrograms/ml or less) | – |
| N=C(N)NCCCNC(=O)c1ccc(-n2cc3cc(-c4ccc(S(=O)(=O)N(CC5COc6ccccc6O5)C5CCNCC5)cc4)[nH]c3nc2=O)cc1 (centres unmarked) [Compound 1010] | + (a “+” indicates that the compound has an MIC value of 16 micrograms/ml or less) | – |
| N=C(N)NCCCNCc1ccc(-n2cc3cc(C4CCCN(CCCN5CCOCC5)C4)[nH]c3nc2=O)cc1 (centres unmarked) [Compound 2044a] | + (a “+” indicates that the compound has an MIC value of 16 micrograms/ml or less) | – |
| NCCCN(CCCN)Cc1ccc(-n2cc3cc(-c4ccc(C(=O)N[C@H]5CC[C@H](O)CC5)cc4)[nH]c3nc2=O)cc1 [Compound 192] | – | > 16 |
| CO[C@@H](CN)COc1cccc(-c2cc3cn(-c4ccc(CN)cc4)c(=O)nc3[nH]2)c1 [Compound 1444] | – | > 16 |
| NCc1ccc(-n2cc3cc(-c4cccc(OCCCN5CCNCC5)c4)[nH]c3nc2=O)cc1 [Compound 1107] | – | > 16 |
| N=C(N)NCCCNCc1ccc(-n2cc3cc(-c4cccc(S(=O)(=O)NCCN)c4)[nH]c3nc2=O)cc1 [Compound 2007a] | + (a “+” indicates that the compound has an MIC value of 16 micrograms/ml or less) | – |
| N=C(N)NCCCNC(=O)c1ccc(C2N=c3cc(-c4ccc(S(=O)(=O)N(CCCN5CCCCC5)C5CCNCC5)cc4)[nH]c3=NC2=O)cc1 (centres unmarked) [Compound 1017] | + (a “+” indicates that the compound has an MIC value of 16 micrograms/ml or less) | – |
| O=c1nc2[nH]c(-c3ccc(S(=O)(=O)NC4CCNCC4)cc3)cc2cn1-c1cccc(OCc2c[nH]cn2)c1 [Compound 1188] | – | > 16 |
| N#CCCCOc1cccc(-c2cc3cn(-c4ccc(CNCCCNC(=N)N)cc4)c(=O)nc3[nH]2)c1 [Compound 1203] | – | > 16 |
| N=C(N)NCCCNCc1ccc(-n2cc3cc(-c4cc(C=CCCN)cc(OC(F)(F)F)c4)[nH]c3nc2=O)cc1 [Compound 2045a] | + (a “+” indicates that the compound has an MIC value of 16 micrograms/ml or less) | – |
| O=C(NC1CCNCC1)c1ccc(-c2cc3cn(-c4ccc(CNCCCF)c(F)c4)c(=O)nc3[nH]2)c(F)c1 [Compound 280] | – | > 16 |
| NCCCNCc1ccc(-n2cc3cc(CCN[C@H]4CCCNC4)[nH]c3nc2=O)cc1 [Compound 816] | – | < 16 |
| N=C(N)NCCCNCc1ccc(-n2cc3cc(-c4ccc(C(=O)NC5CNC5)cc4)[nH]c3nc2=O)cc1 [Compound 1412] | + (a “+” indicates that the compound has an MIC value of 16 micrograms/ml or less) | – |
| N=C(N)NCCCNCc1ccc(-n2cc3cc(-c4cccc(S(=O)(=O)N(Cc5ccc6nonc6c5)C5CCNCC5)c4)[nH]c3nc2=O)cc1 [Compound 1076] | + (a “+” indicates that the compound has an MIC value of 16 micrograms/ml or less) | – |
| NCCCNCc1ccc(-c2cn3cc[nH]c3nc2=O)cc1 [Compound 563, 6-{4-[(3-Amino-propylamino)-methyl]-phenyl}-1H-imidazo[1,2-a]pyrimidin-7-one] | – | > 16 |
| N=C(N)NCCCNCc1ccc(-n2cc3cc(-c4cc(C(=O)NC5CCNCC5)cc(N5CCNCC5)c4)[nH]c3nc2=O)cc1 [Compound 1023] | + (a “+” indicates that the compound has an MIC value of 16 micrograms/ml or less) | – |

| SMILES | E. coli ATCC25922 MIC | MIC [mg/L] |
| --- | --- | --- |
| N=C(N)NCCCN1CC=C(n2cc3cc(-c4ccc(S(=O)(=O)N(CC5CC5)C5CCNCC5)cc4)[nH]c3nc2=O)CC1 [Compound 969] | + (a “+” indicates that the compound has an MIC value of 16 micrograms/ml or less) | – |
| COc1ccc(CN(C2CCNCC2)S(=O)(=O)c2ccc(-c3cc4cn(-c5ccc(C(=O)NCCCNC(=N)N)cc5)c(=O)nc4[nH]3)cc2)cc1[N+](=O)[O-] [Compound 1114] | + (a “+” indicates that the compound has an MIC value of 16 micrograms/ml or less) | – |
| NCCCNCc1ccc(-n2cc3cc(-c4ccccc4Cl)[nH]c3nc2=O)cc1 [Compound 288] | – | > 16 |
| NCCCCCN1CC=C(n2cc3cc(-c4ccc(C(=O)NC5CCNCC5)cc4)[nH]c3nc2=O)CC1 [Compound 507] | – | < 16 |
| NCCCNCc1ccc(-n2cc3cc(-c4cc(C(=O)N5CCS(=O)(=O)CC5)cc(N5CCNCC5)c4)[nH]c3nc2=O)cc1 [Compound 874] | − (a “−” indicates that the compound has an MIC value greater than 16 micrograms/ml) | – |
| N=C(N)NCCCNCc1ccc(-c2cn3cc(-c4ccc(C(=O)NCCCN5CCNCC5)cc4)[nH]c3nc2=O)cc1 [Compound 722] | – | < 16 |
| N=C(N)NCCCNCc1ccc(-n2cc3cc(CCS(=O)(=O)N(Cc4ccc(Cl)c(Cl)c4)C4CCNCC4)[nH]c3nc2=O)cc1 [Compound 913] | + (a “+” indicates that the compound has an MIC value of 16 micrograms/ml or less) | – |
| N=C(N)NCCCNCc1ccc(-n2cc3cc(-c4ccc(S(=O)(=O)N(CC5CC5)C5CCNCC5)cc4)[nH]c3nc2=O)cc1 [Compound 728] | – | < 16 |
| N=C(N)NCCCNCc1ccc(C2N=c3cc(-c4cccc(O)c4)[nH]c3=NC2=O)cc1 (centres unmarked) [Compound 1334] | – | < 16 |
| NC(N)=NCCCNCc1ccc(-n2cc3cc(-c4cccc(S(=O)(=O)N(CCN5CCCC5)C5CCNCC5)c4)[nH]c3nc2=O)cc1 [Compound 1186] | + (a “+” indicates that the compound has an MIC value of 16 micrograms/ml or less) | – |
| N=C(N)NCCCNCc1ccc(-n2cc3cc(C4CCCN(CCOCCO)C4)[nH]c3nc2=O)cc1 (centres unmarked) [Compound 2043a] | + (a “+” indicates that the compound has an MIC value of 16 micrograms/ml or less) | – |
| NCCCNCc1ccc(-n2cc3cc(CC4CCCCC4)[nH]c3nc2=O)cc1 [Compound 622] | – | > 16 |
| NCc1ccc(-n2cc3cc(C4C[C@@H](N)[C@@H](CO)O4)[nH]c3nc2=O)cc1 (some centres unmarked) [Compound 1301] | – | > 16 |
| NCCCNCc1ccc(-c2cn3cc(-c4ccc(C5=CCNCC5)cc4)[nH]c3nc2=O)cc1 [Compound 649] | – | < 16 |
| N=C(N)NCCCN1CC=C(n2cc3cc(-c4ccc(S(=O)(=O)N(CCCC5CCCC5)C5CCNCC5)cc4)[nH]c3nc2=O)CC1 [Compound 967] | + (a “+” indicates that the compound has an MIC value of 16 micrograms/ml or less) | – |
| NC(=O)/N=C(\N)NCCCNCc1ccc(-n2cc3cc(-c4ccc(C(=O)NC5CCNCC5)cc4)[nH]c3nc2=O)cc1 [Compound 228] | – | < 16 |
| COCc1cc(OCC(F)CN)cc(-c2cc3cn(-c4ccc(CNCCCNC(=N)N)cc4)c(=O)nc3[nH]2)c1 (centres unmarked) [Compound 2036a] | + (a “+” indicates that the compound has an MIC value of 16 micrograms/ml or less) | – |
